Measurements as given in patent publication US20240002393A1, “SUBSTITUTED BENZO[f][l ,2,4JTRIAZOL0[4,3-a][l ,4J[…] GABA A GAMMA! POSITIVE ALLOSTERIC MODULATORS” (Hoffmann-La Roche Inc., priority 2020, published 2024).
pKi: −log10 of the molar value. Where “and” joins values, the source holds several entries; their conditions need not be identical. Equal entries are not always repeated.

How the values were obtained:
[1] = target: h-GABA-A α2β2γ1 (Homo sapiens (Human), UniProt P47869+Q8N1C3); experiment: Two-electrode voltage clamp electrophysiology in Xenopus oocytes expressing GABAA receptors; format: cell-based; conditions: for Efficacy (GABA)%: % modulation of GABA EC20 = 100*(Fold increase−1), compound at 30-fold Ki; for Fold increase h-GABA-A α2β2γ1 oocyte @ 30-fold Ki: GABA EC20, test compound at about 30-fold its Ki α2β2γ1, at least 3 oocytes
Procedure, shortened: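 Oocytes injected with α2β2γ1 subunit mRNA were recorded on days 3–5 by two-electrode voltage clamp at −80 mV, room temperature, pH 7.4 superfusion. Compound effect on GABA EC20 current computed point by point against a control GABA response; extremum expressed as % modulation of GABA EC20, n≥3 oocytes.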

[2] = target: human GABAA α1β2γ1 receptor (Homo sapiens (Human), UniProt P14867+Q8N1C3); experiment: Radioligand binding assay, [3H]RO7239181 competition, γ1-containing GABAA subtypes; conditions: HEK293F membranes, [3H]RO7239181 20-30 nM, mean of two determinations
[3] = target: human GABAA α2β2γ1 receptor (Homo sapiens (Human), UniProt P47869+Q8N1C3); experiment: as above; conditions: for pKi: HEK293F membranes, [3H]RO7239181 20-30 nM, mean of two determinations, read-out: Ki h-GABAA α2β2γ1; for γ2/γ1 Selectivity Ratio: Ki α1β3γ2 (nM)/Ki α2β2γ1 (nM); for LogSel: Log[Ki α1β3γ2 (nM)/Ki α2β2γ1 (nM)]

Structure (SMILES): Cc1nnc2n1-c1ccc(Br)c(Cl)c1C(c1ncccc1F)=N[C@H]2C [Example 85, (4S)-8-bromo-7-chloro-6-(3-fluoro-2-pyridyl)-1,4-dimethyl-4H-[1,2,4]triazolo[4,3-a][1,4]benzodiazepine]
- Efficacy (GABA)% [1]: 114%
- Fold increase h-GABA-A α2β2γ1 oocyte @ 30-fold Ki [1]: 2.14
- pKi [2]: 7.20
- pKi [3]: 7.28
- γ2/γ1 Selectivity Ratio [3]: 13.3
- LogSel [3]: 1.12

Structure (SMILES): Cc1ccc(-c2nnc3n2-c2ccc(Cl)c(Cl)c2C(c2c(F)cccc2F)=N[C@H]3C)nn1 [Example 86, (4S)-7,8-dichloro-6-(2,6-difluorophenyl)-4-methyl-1-(6-methylpyridazin-3-yl)-4H-[1,2,4]triazolo[4,3-a][1,4]benzodiazepine]
- Efficacy (GABA)% [1]: 80%
- Fold increase h-GABA-A α2β2γ1 oocyte @ 30-fold Ki [1]: 1.80
- pKi [2]: 8.23
- pKi [3]: 8.36
- γ2/γ1 Selectivity Ratio [3]: 195.1 and 195
- LogSel [3]: 2.29 and 2.3

Structure (SMILES): Cc1cc(-c2nnc3n2-c2ccc(Cl)c(Cl)c2C(c2c(F)cccc2F)=N[C@H]3C)on1 [Example 87, 5-[(4S)-7,8-dichloro-6-(2,6-difluorophenyl)-4-methyl-4H-[1,2,4]triazolo[4,3-a][1,4]benzodiazepin-1-yl]-3-methyl-isoxazole]
- Efficacy (GABA)% [1]: 42%
- Fold increase h-GABA-A α2β2γ1 oocyte @ 30-fold Ki [1]: 1.42
- pKi [2]: 8.10
- pKi [3]: 8.12
- γ2/γ1 Selectivity Ratio [3]: 70.9
- LogSel [3]: 1.85

Structure (SMILES): Cc1ccc(-c2nnc3n2-c2ccc(Cl)c(Br)c2C(c2c(F)cccc2F)=N[C@H]3C)nn1 [Example 88, (4S)-7-bromo-8-chloro-6-(2,6-difluorophenyl)-4-methyl-1-(6-methylpyridazin-3-yl)-4H-[1,2,4]triazolo[4,3-a][1,4]benzodiazepine]
- Efficacy (GABA)% [1]: 105%
- Fold increase h-GABA-A α2β2γ1 oocyte @ 30-fold Ki [1]: 2.05
- pKi [2]: 7.46
- pKi [3]: 7.96
- γ2/γ1 Selectivity Ratio [3]: 133.6
- LogSel [3]: 2.13

Structure (SMILES): C[C@@H]1N=C(c2c(F)cccc2F)c2c(ccc(Cl)c2Br)-n2c1n[nH]c2=O [Example 89, (4S)-7-bromo-8-chloro-6-(2,6-difluorophenyl)-4-methyl-2,4-dihydro-[1,2,4]triazolo[4,3-a][1,4]benzodiazepin-1-one]
- Efficacy (GABA)% [1]: 88%
- Fold increase h-GABA-A α2β2γ1 oocyte @ 30-fold Ki [1]: 1.88
- pKi [2]: 6.97
- pKi [3]: 7.11
- γ2/γ1 Selectivity Ratio [3]: 19.0
- LogSel [3]: 1.28

Structure (SMILES): Cc1nnc2n1-c1ccc(C(F)(F)F)c(Cl)c1C(c1c(F)cccc1F)=N[C@H]2C [Example 92, (4S)-7-chloro-6-(2,6-difluorophenyl)-1,4-dimethyl-8-(trifluoromethyl)-4H-[1,2,4]triazolo[4,3-a][1,4]benzodiazepine]
- Efficacy (GABA)% [1]: 92%
- Fold increase h-GABA-A α2β2γ1 oocyte @ 30-fold Ki [1]: 1.92
- pKi [2]: 7.32
- pKi [3]: 7.66
- γ2/γ1 Selectivity Ratio [3]: 102.0
- LogSel [3]: 2.01

Structure (SMILES): Cc1nnc2n1-c1ccc(C(C)(F)F)c(Cl)c1C(c1c(F)cccc1F)=N[C@H]2C [Example 93, (4S)-7-chloro-8-(1,1-difluoroethyl)-6-(2,6-difluorophenyl)-1,4-dimethyl-4H-[1,2,4]triazolo[4,3-a][1,4]benzodiazepine]
- Efficacy (GABA)% [1]: 169%
- Fold increase h-GABA-A α2β2γ1 oocyte @ 30-fold Ki [1]: 2.69
- pKi [2]: 7.07
- pKi [3]: 7.41
- γ2/γ1 Selectivity Ratio [3]: 152.1
- LogSel [3]: 2.18

Structure (SMILES): Cc1cc(-c2nnc3n2-c2ccc(Cl)c(Cl)c2C(c2c(F)cccc2F)=N[C@H]3C)ncn1 [Example 94, (4S)-7,8-dichloro-6-(2,6-difluorophenyl)-4-methyl-1-(6-methylpyrimidin-4-yl)-4H-[1,2,4]triazolo[4,3-a][1,4]benzodiazepine]
- Efficacy (GABA)% [1]: 47%
- Fold increase h-GABA-A α2β2γ1 oocyte @ 30-fold Ki [1]: 1.47
- pKi [2]: 7.99
- pKi [3]: 8.10
- γ2/γ1 Selectivity Ratio [3]: 76.4
- LogSel [3]: 1.88
